Consider three compounds from patent publication US20190022016A1, “COMPOSITIONS FOR SUSTAINED RELEASE OF ANTI-GLAUCOMA AGENTS TO CONTROL INTRAOCULAR PRESSURE” (The Johns Hopkins University, priority 2016, published 2019).

The nature of data set [1]: In vitro drug release from microparticles in PBS. It counts as physicochemical. The settings on record: for duration of in vitro drug release: PBS pH 7.4, 37° C., infinite sink, PEG3-PSA microparticles, 2% PEG; for drug released during the first 6 days / release over the initial 24 hours: from PEG3-PSA, infinite sink conditions. Here is the method: PEG3-PSA is a polyanhydride polymer that undergoes surface erosion to deliver continuous drug release and has been previously used for ocular delivery. Particle disappearance parallels drug release due to surface erosion. Particles were suspended in phosphate buffered saline (PBS, pH 7.4) at 5 mg/mL and incubated at 37° C. on a rotating platform (140 RPM). At selected time points, supernatant was collected by centrifugation (8,000×g for 5 min) and particles were resuspended in fresh PBS. Drug content was measured by spectraphotometer.

For data set [2] the following is noted: systemic; cited from earlier work.

For `CCN[C@H]1C[C@H](C)S(=O)(=O)c2sc(S(N)(=O)=O)cc21` [dorzolamide], in data set [1], the “duration of in vitro drug release” value turned out to be 12 days, the “drug released during the first 6 days” value amounted to 80% and the “release over the initial 24 hours” value was 18%.

With `CC(=O)Nc1nnc(S(N)(=O)=O)s1` [acetazolamide], the IOP reduction in data set [2] is listed as 30%.

As to `CCN[C@H]1CN(CCCOC)S(=O)(=O)c2sc(S(N)(=O)=O)cc21` [brinzolamide], in data set [1], the “duration of in vitro drug release” value is on record as 12 days, the “drug released during the first 6 days” value came to 80% and the “release over the initial 24 hours” value worked out at 12%.
